# Laboratory results: patent publication US20250360214A1, “NON-TOXIC PHOTOSENSITIZER COMPOSITION AND TWO-COMPONENT TYPE PHOTOSENSITIZER COMPOSITION COMPRISING THE SAME” (priority 2024, published 2025)
# Where a name gives a salt, the structure may show the parent alone.
# Legend:
# RAW264.7 = assay: Cytotoxicity test (MTT assay) of solvent components PEG, DMSO and HCl; assay type: cell-based; settings: RAW264.7, MTT assay, FIG. 1
# Description: RAW264.7 (5×10^5 cells/well in 6 well plate) was used as a cell line, and 1XDMEM (supplemented with 7% FBS and 1% antibiotics) medium (Thermo fisher scientific, 11995-065) was used.
# Raw264.7 cells, which may be animal model cells, were seeded into 6 well plates containing 2 mL of DMEM medium to have an initial cell number of 5×10^5 cells/well, and then cultured in a CO2 incubator at 37° C. for 1 day under CO2 conditions. After 1 day of culture, solvent composition samples were added and cultured for an additional 2 days under the same conditions, respectively. After that, MTT assay was performed to confirm cytotoxicity.
# In this case, the MTT assay method using an MTT assay kit (EZ-CYTOX-company, Dogenbio-model number: EZ-500) first prepared 5×10^5/well (total vol. 2 ml) in a 6-well plate for seeding, and then cultured for 24 h under 37° C., 5% CO2 conditions. A blank (only media) without cells was also prepared at the same time. An experimental material was treated according to conditions, and then cultured and reacted for 24 h under 37° C./5% CO2 conditions. Additionally, 200 μL Ez-cytox ( 1/10) was added to each of the wells, and reacted for 1 h. The wells were shaken gently before measuring absorbance, 200 μL thereof was then transferred to a 96-well plate, the absorbance was measured at a wavelength of 450 nm, and a viability rate was calculated according to the following equation (1).
# [1] = background statement; cited from earlier work
Compound,concentration at which no toxicity was observed (RAW264.7),water solubility [1]
"C[S+](C)[O-] [DMSO, dimethylsulfoxide]",≤ 2 vol %,
polyethylene glycol [PEG],≤ 3 vol %,
"Cl [HCl, hydrochloric acid]",≤ 10 mN,
"3-[(3, 5-dimethyl-1H-pyrazole-4-yl)methyl]-3-devinylpyropheophorbide-a methyl ester [MPP100]",,extremely low water solubility
